Reference: PubChem BioAssay AID1963439 (Molecular Pharmacology Branch, DTP, NCI, 2024)
pIC50: −log10 of the molar value.

Test system: NCI-H196 complex spheroids with HUVEC/MSC, growth % T/C
Assay: Anticancer human tumor NCI-H196 cell line growth inhibition [Asc];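 also: spheroids exposed to compound for 7 days before measurement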;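 as to viability, T/C: 100% = DMSO vehicle control wells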
Conditions: for pIC50: curve of first compound; for viability, T/C: stronger effect = lower value
How it was run: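 Tumor cells were grown as multicellular spheroids with stromal HUVEC and mesenchymal stem cells and treated singly or in combination. Concentrations fell in half-log steps from the clinical Cmax, or from 10 microM where none was known.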

[1] = second compound 0.1 µM, first compound 0.0316 µM
[2] = second compound 0.1 µM, first compound 0.1 µM
[3] = second compound 0.1 µM, first compound 0.316 µM
[4] = second compound 0.1 µM, first compound 1 µM
[5] = second compound 0.1 µM, first compound 3.16 µM
[6] = second compound 0.1 µM, first compound 10 µM
[7] = second compound 0.316 µM, first compound 0.0316 µM
[8] = second compound 0.316 µM, first compound 0.1 µM
[9] = second compound 0.316 µM, first compound 0.316 µM
[10] = second compound 0.316 µM, first compound 1 µM
[11] = second compound 0.316 µM, first compound 3.16 µM
[12] = second compound 0.316 µM, first compound 10 µM
[13] = second compound 1 µM, first compound 0.0316 µM
[14] = second compound 1 µM, first compound 0.1 µM
[15] = second compound 1 µM, first compound 0.316 µM
[16] = second compound 1 µM, first compound 1 µM
[17] = second compound 1 µM, first compound 3.16 µM
[18] = second compound 1 µM, first compound 10 µM
[19] = second compound 3.16 µM, first compound 0.0316 µM
[20] = second compound 3.16 µM, first compound 0.1 µM
[21] = second compound 3.16 µM, first compound 0.316 µM
[22] = second compound 3.16 µM, first compound 1 µM
[23] = second compound 3.16 µM, first compound 3.16 µM
[24] = second compound 3.16 µM, first compound 10 µM
[25] = second compound 10 µM, first compound 0.0316 µM
[26] = second compound 10 µM, first compound 0.1 µM
[27] = second compound 10 µM, first compound 0.316 µM
[28] = second compound 10 µM, first compound 1 µM
[29] = second compound 10 µM, first compound 3.16 µM
[30] = second compound 10 µM, first compound 10 µM

Compound | pIC50 (second compound 0.1 µM) | pIC50 (second compound 0.316 µM) | pIC50 (second compound 1 µM) | pIC50 (second compound 3.16 µM) | pIC50 (second compound 10 µM) | viability, T/C [1] [%] | viability, T/C [2] [%] | viability, T/C [3] [%] | viability, T/C [4] [%] | viability, T/C [5] [%] | viability, T/C [6] [%] | viability, T/C [7] [%] | viability, T/C [8] [%] | viability, T/C [9] [%] | viability, T/C [10] [%] | viability, T/C [11] [%] | viability, T/C [12] [%] | viability, T/C [13] [%] | viability, T/C [14] [%] | viability, T/C [15] [%] | also measured
C=C(F)C(=O)N1CCN(c2nc(OCC3CCCN3C)nc3c2CCN(c2cccc4cccc(Cl)c24)C3)CC1CC#N (stereo not given) + Cc1c(S(C)(=O)=O)c(-c2cc(F)cc(N3CCN(c4ccc(NS(=O)(=O)c5ccc(NC(CCN6CCC(C(=O)OCCCP(=O)(O)O)CC6)CSc6ccccc6)c(S(=O)(=O)C(F)(F)F)c5)cc4)CC3)c2)c(-c2ccc(Cl)cc2)n1C(C)C | < 5.00 | < 5.00 | 5.22 | 5.29 | 5.35 | 95.8 | 94.5 | 92 | 99.9 | 107 | 74.8 | 87.6 | 95 | 99.3 | 86.4 | 87.4 | 83.5 | 96.6 | 81.3 | 93.5 | viability, T/C [16]: 74.9%; viability, T/C [17]: 82%; viability, T/C [18]: 25.5%; viability, T/C [19]: 82.7%; viability, T/C [20]: 80.6%; viability, T/C [21]: 78.5%; viability, T/C [22]: 83.7%; viability, T/C [23]: 85.5%; viability, T/C [24]: 4.09%; viability, T/C [25]: 75.5%; viability, T/C [26]: 70.1%; viability, T/C [27]: 70.4%; viability, T/C [28]: 67.1%; viability, T/C [29]: 68.5%; viability, T/C [30]: 8.1%
C=CC(=O)N1CCN(c2nc(=O)n(-c3c(C)ccnc3C(C)C)c3nc(-c4c(O)cccc4F)c(F)cc23)C(C)C1 (stereo not given) + Cc1c(S(C)(=O)=O)c(-c2cc(F)cc(N3CCN(c4ccc(NS(=O)(=O)c5ccc(NC(CCN6CCC(C(=O)OCCCP(=O)(O)O)CC6)CSc6ccccc6)c(S(=O)(=O)C(F)(F)F)c5)cc4)CC3)c2)c(-c2ccc(Cl)cc2)n1C(C)C | < 5.00 | < 5.00 | < 5.00 | < 5.00 | < 5.00 | 103 | 93.2 | 96.1 | 102 | 96 | 97.9 | 92.1 | 97.4 | 96 | 109 | 104 | 96.5 | 95.5 | 92.4 | 93.9 | viability, T/C [16]: 88%; viability, T/C [17]: 110%; viability, T/C [18]: 85.7%; viability, T/C [19]: 87.9%; viability, T/C [20]: 87.1%; viability, T/C [21]: 83.8%; viability, T/C [22]: 87.8%; viability, T/C [23]: 84.9%; viability, T/C [24]: 80%; viability, T/C [25]: 73.9%; viability, T/C [26]: 79.6%; viability, T/C [27]: 79.8%; viability, T/C [28]: 75.3%; viability, T/C [29]: 78.1%; viability, T/C [30]: 66.8%
